# Measurements: patent publication US10934303B2, “Aryl ethene derivative and pharmaceutical composition containing same as active ingredient” (priority 2016, dated 2021)
# Read-outs that look alike come from different tables or passages of the source.
# What was measured:
# [1] = in vitro; type: in vitro ADME; settings: PBS pH 7.4, 25° C., 5 hours
# Protocol: 3) Parallel Artificial Membrane Permeability Assay (PAMPA) Evaluation
# PAMPA is a method which has been developed for testing cell membrane permeability of a material in a test tube, and has been performed using a lipid tri-layer PVDF membrane available from Corning Gentest (NY, US), the used reagents were all purchased from Sigma (MO, US). First, a test material is diluted in PBS (pH 7.4) to a final concentration of 10 mM, 300 mL of the solution is added to the bottom well of a 96-transwell equipped with a PVDF membrane, and 200 mL of PBS is added to the upper well. Then, a plate is reacted at 25° C. for 5 hours, 20 mL of the solution in each well is transferred to a new container, and 80 mL of acetonitrile containing an internal standard material (4 mM chloropropamide) is added thereto. A concentration of the material in the solution is analyzed using LC-MS/MS (ThermoFisher Scientific, MO, US), and the transmittance of the material is calculated according to the equation reported in the reference document.
# [2] = 1 μM, 30 minutes, 37° C., NADPH
# Protocol: 2) Microsomal Stability Evaluation
# (§2) Four liver microsomes (Human, Dog, Rat, Mouse 0.5 mg/ml) with a 0.1 M phosphate buffer solution (pH 7.4), and the arylethene derivative of the present invention were added to a concentration of 1 μM, culturing was performed at 37° C. for 5 minutes in advance, a NADPH regeneration system solution was added thereto, and culturing was performed at 37° C. for 30 minutes. Thereafter, in order to complete the reaction, an acetonitrile solution containing an internal standard material (chlorpropamide) was added thereto, centrifugation (14,000 rpm, 4° C.) was performed for 5 minutes, and a supernatant was injected into a LC-MS/MS system to analyze the substrate drug, thereby evaluating metabolism stability to the arylethene derivative of the present invention.
# [3] = 1 μM, 30 minutes, 37° C., NADPH; remark: listed apart in the source
# Protocol: 2) Microsomal Stability Evaluation
# as §2
# [4] = 1 μM, 30 minutes, 37° C., NADPH; remark: listed apart in the source
# Protocol: 2) Microsomal Stability Evaluation
# as §2
# [5] = 1 μM, 30 minutes, 37° C., NADPH; remark: listed apart in the source
# Protocol: 2) Microsomal Stability Evaluation
# as §2
# [6] = test system: ERRγ; type: cell-based
# Protocol: AD293 was cultured in a 24-well plate for 24 hours, using a DMEM High glucose culture medium (Hyclone, USA) to which 0.5% FBS was added at a concentration of 9×10^4/well. The culture medium was replaced with a DMEM High glucose culture medium to which 10% FBS was added, treatment was performed with a mixture of a TransIT-LT1 transfection reagent (Mirus, USA) and pCMX-Gal4-ERRγ, pFR-luciferase reporter plasmid, pCMV-β-gal, and culturing was performed for 24 hours. Thereafter, a luciferase activity assay and a β-gal assay were performed, respectively, with a lysate obtained after treatment with the arylethene derivative of the present invention for 24 hours. All results were derived from three or more independent repetitive experiments.
# [7] = target: CYP1A2 (Homo sapiens (Human), UniProt P05177); assay: Cytochrome P450 activity inhibition, CYP1A2; type: in vitro ADME; settings: 10 μM, human liver microsomes, Phenacetin substrate
# Text: (§1) 1) Cytochrome P450 (CYP450) Activity Inhibition Evaluation
# [8] = target: CYP2C9 (Homo sapiens (Human), UniProt P11712); assay: Cytochrome P450 activity inhibition, CYP2C9; type: in vitro ADME; settings: 10 μM, human liver microsomes, Diclofenac substrate
# Text: as §1
# [9] = target: CYP2C19 (Homo sapiens (Human), UniProt P33261); assay: Cytochrome P450 activity inhibition, CYP2C19; type: in vitro ADME; settings: 10 μM, human liver microsomes, S-mephenytoin substrate
# Text: as §1
# [10] = target: CYP2D6 (Homo sapiens (Human), UniProt P10635); assay: Cytochrome P450 activity inhibition, CYP2D6; type: in vitro ADME; settings: 10 μM, human liver microsomes, Dextromethorphan substrate
# Text: as §1
# [11] = target: CYP3A4 (Homo sapiens (Human), UniProt P08684); assay: Cytochrome P450 activity inhibition, CYP3A4; type: in vitro ADME; settings: 10 μM, human liver microsomes, Midazolam substrate
# Text: as §1
# [12] = in vivo; type: in vivo; settings: rat; for Cmax: read-out: Cmax
# Protocol: An oral administration group fasts the day before.
# Blood of each animal is collected at 0 hour.
# Into a tail vein of an intravenous administration group (IV), a drug is injected at a dose of 1 mg/kg (syringe).
# To an oral administration group (PO), a drug is orally administered at a dose of 10 mg/kg (oral zondec)
# After administration, blood of the intravenous administration group was collected through a jugular vein 8 times at 0.08, 0.25, 0.5, 1, 2, 4, 6, and 8 hours. One collected blood amount is 400 to 500 ul.
# After administration, blood of the oral administration group was collected through a jugular vein 6 times at 0.25, 0.5, 1, 4, 6 and 8 hours. One collected blood amount is 400 to 500 ul.
# Supernatant plasma is collected by a centrifuge.
# The supernatant plasma was injected into a LC-MS/MS system and the drug is analyzed.
# CYP3A4, sequence (P08684 whole entry): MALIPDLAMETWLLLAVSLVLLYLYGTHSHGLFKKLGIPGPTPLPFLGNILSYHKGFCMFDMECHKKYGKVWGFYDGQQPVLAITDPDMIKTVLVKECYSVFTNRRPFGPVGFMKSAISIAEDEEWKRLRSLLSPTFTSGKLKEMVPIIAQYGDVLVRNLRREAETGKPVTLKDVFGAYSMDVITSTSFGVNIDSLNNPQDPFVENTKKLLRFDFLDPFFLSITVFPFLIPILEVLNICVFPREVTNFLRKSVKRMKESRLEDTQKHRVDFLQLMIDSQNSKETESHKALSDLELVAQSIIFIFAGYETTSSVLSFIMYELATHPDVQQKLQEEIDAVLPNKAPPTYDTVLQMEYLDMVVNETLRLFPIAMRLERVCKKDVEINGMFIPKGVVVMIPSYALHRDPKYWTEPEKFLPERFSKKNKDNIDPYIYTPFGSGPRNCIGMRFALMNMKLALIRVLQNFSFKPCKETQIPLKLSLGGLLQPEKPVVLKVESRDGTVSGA
# CYP2C19, sequence (P33261 whole entry): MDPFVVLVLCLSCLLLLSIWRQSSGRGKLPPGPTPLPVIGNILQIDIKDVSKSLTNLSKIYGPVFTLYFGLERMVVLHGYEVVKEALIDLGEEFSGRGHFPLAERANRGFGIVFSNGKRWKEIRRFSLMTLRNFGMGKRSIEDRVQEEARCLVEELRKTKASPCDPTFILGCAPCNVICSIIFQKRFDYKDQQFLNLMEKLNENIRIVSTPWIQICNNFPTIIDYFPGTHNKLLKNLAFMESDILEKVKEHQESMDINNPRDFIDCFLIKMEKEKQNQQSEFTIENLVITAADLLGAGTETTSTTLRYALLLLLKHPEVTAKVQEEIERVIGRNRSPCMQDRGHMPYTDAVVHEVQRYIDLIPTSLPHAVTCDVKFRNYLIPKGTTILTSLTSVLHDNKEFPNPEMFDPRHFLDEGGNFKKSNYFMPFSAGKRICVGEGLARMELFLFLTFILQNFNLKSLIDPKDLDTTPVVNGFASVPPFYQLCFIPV
# CYP1A2, sequence (P05177 whole entry): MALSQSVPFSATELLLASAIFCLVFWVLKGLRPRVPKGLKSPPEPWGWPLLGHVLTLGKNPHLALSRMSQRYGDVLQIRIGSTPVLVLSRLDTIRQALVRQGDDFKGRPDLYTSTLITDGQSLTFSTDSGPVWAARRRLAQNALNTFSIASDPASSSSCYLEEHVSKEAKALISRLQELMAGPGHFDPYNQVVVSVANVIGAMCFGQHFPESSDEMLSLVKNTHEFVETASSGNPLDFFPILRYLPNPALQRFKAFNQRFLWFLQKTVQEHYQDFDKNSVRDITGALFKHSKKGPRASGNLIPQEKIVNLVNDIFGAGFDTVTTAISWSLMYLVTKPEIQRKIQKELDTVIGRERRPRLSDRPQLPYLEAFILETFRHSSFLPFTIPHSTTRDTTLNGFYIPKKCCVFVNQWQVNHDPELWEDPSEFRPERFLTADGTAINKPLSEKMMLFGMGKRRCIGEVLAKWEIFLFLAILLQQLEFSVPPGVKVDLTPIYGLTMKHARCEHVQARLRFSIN
# CYP2D6, sequence (P10635 whole entry): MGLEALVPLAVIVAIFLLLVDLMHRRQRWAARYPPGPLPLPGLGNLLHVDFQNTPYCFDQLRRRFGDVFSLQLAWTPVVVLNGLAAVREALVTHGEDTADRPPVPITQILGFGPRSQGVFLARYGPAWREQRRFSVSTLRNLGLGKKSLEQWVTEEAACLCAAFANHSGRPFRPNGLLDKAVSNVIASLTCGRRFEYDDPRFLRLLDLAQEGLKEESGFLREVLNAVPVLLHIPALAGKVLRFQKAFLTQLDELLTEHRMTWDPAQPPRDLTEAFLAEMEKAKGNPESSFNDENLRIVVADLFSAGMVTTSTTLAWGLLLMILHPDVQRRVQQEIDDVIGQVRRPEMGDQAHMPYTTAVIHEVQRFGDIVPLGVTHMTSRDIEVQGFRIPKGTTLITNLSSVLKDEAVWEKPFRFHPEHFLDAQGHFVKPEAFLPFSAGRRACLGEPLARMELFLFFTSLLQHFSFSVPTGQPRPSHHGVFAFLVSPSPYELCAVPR
# CYP2C9, sequence (P11712 whole entry): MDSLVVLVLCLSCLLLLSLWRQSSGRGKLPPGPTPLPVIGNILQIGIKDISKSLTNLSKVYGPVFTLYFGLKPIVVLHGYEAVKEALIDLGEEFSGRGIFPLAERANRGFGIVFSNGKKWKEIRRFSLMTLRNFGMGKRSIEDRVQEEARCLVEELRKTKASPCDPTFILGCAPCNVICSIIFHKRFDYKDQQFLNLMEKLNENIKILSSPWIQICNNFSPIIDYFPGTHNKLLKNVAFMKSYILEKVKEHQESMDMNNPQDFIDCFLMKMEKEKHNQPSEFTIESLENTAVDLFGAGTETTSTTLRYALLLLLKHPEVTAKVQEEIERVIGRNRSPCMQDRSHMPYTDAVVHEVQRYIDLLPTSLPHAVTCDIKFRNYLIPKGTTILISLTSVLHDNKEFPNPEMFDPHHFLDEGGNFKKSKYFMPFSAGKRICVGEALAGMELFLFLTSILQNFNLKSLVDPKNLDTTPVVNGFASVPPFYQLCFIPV
Structure (SMILES),Permeability Pampa [1],MS(Microsomal Stability) (%) human [2] [%],MS(Microsomal Stability) (%) dog [3] [%],MS(Microsomal Stability) (%) rat [4] [%],MS(Microsomal Stability) (%) mouse [5] [%],CYP inhibition (% of control) 1A2 [7],CYP inhibition (% of control) 2C9 [8],CYP inhibition (% of control) 2C19 [9],CYP inhibition (% of control) 2D6 [10],CYP inhibition (% of control) 3A4 [11],other results
CC(=O)Nc1ccc(/C(=C(\CCCO)c2ccccc2)c2ccc(C3CCN(C4CC4)CC3)cc2)cc1 [Compound 27c],0.68 10^−6 cm/s,83.5,81.2,79.4,42.1,,,,,,
CC(C)N1CCN(c2ccc(/C(=C(/CCCO)c3ccccc3)c3cccc(O)c3)cc2)CC1 [Compound 18k],1.29 10^−6 cm/s,65.4,61.2,54.9,26.9,,,,,,"Functional Assay at 10 μM (% of control), Cpds ([6]; 10 μM, 24 hours, AD293): 1.08 % of control; Functional Assay, Cpds/Ref 5182 ([6]; activity relative to reference compound GSK5182, 10 μM): 1.14"
CN1CCC(c2ccc(/C(=C(/CCCO)c3ccccc3)c3cccc(O)c3)cc2)CC1 [Compound 22ac],,,,,,>100 % of control,>100 % of control,>100 % of control,86.2 % of control,85 % of control,
Cc1ccc(/C(=C(\CCCO)c2ccccc2)c2ccc(C3CN(C(C)C)C3)cc2)cc1 [Compound 22e],6.16 10^−6 cm/s,,,,,94.9 % of control,61.3 % of control,58.4 % of control,71.8 % of control,58.2 % of control,
OCCC/C(=C(/c1ccc(C2=CCN(C3CC3)CC2)cc1)c1cccc(O)c1)c1ccccc1 [Compound 22l],,71.8,67.9,53.4,25.8,96.2 % of control,88.3 % of control,97 % of control,99 % of control,80.7 % of control,
CCN1CCC(c2ccc(C(=C(CCCO)c3ccccc3)c3cccc(O)c3)cc2)CC1 [Compound 22ae],,48.4,33.7,32.2,21.5,59.4 % of control,>100 % of control,>100 % of control,68.4 % of control,81.5 % of control,
CC(C)N1CCC(c2ccc(/C(=C(/CCCO)c3ccccc3)c3ccc(O)cc3)cc2)C1 (racemic) [Compound 22s],,34.9,35.4,75.6,21.7,,,,,,"AUCall ([12]; IV, 1 mg/kg): 0.44 μMh; Vss ([12]; IV, 1 mg/kg): 13.2 L/kg; t1/2 ([12]; IV, 1 mg/kg): 2.2 h; AUCINF ([12]; PO, 10 mg/kg): 0.11 μMh; AUCall ([12]; PO, 10 mg/kg): 0.09 μMh; BA ([12]; PO, 10 mg/kg): 18.5%; Tmax ([12]; PO, 10 mg/kg): 1.3 h; Cmax ([12]; PO, 10 mg/kg): 20 nM"
OCCC/C(=C(\c1ccc(O)cc1)c1ccc(C2CCN(C3CC3)CC2)cc1)c1ccccc1 [Compound 22i],0.35 10^−6 cm/s,36.0,91.5,92.6,83.6,,,,,,"AUCINF ([12]; IV, 1 mg/kg): 0.54 μMh; AUCall ([12]; IV, 1 mg/kg): 0.49 μMh; Vss ([12]; IV, 1 mg/kg): 11.7 L/kg; t1/2 ([12]; IV, 1 mg/kg): 3.0 h; AUCINF ([12]; PO, 10 mg/kg): 4.52 μMh; AUCall ([12]; PO, 10 mg/kg): 2.24 μMh; BA ([12]; PO, 10 mg/kg): 45.3%; Tmax ([12]; PO, 10 mg/kg): 2.2 h; Cmax ([12]; PO, 10 mg/kg): 380 nM"
CC(C)N1CCC(c2ccc(/C(=C(/CCCO)c3ccccc3)c3cccc(O)c3)cc2)CC1 [Compound 22h],,46.9,22.4,43.8,16.2,>100 % of control,97.9 % of control,>100 % of control,69.1 % of control,72.2 % of control,
CC(C)N1CCN(c2ccc(/C(=C(/CCCO)c3ccccc3)c3ccc(N)cc3)cc2)CC1 [Compound 26b],,49.1,40.6,31.4,14.3,99.2 % of control,92.5 % of control,98.7 % of control,81.9 % of control,60.9 % of control,
Cc1ccc(/C(=C(\CCCO)c2ccccc2)c2ccc(C3CCN(C)CC3)cc2)cc1 [Compound 22f],3.96 10^−6 cm/s,97.0,78.1,80.0,66.3,,,,,,
"Cl.Cl.OCCC/C(=C(\c1ccc(O)cc1)c1ccc(OCCN2CCNCC2)cc1)c1ccccc1 [Compound 7a, (Z)-4-(5-hydroxy-2-phenyl-1-(4-(2-(piperazin-1-yl)ethoxy)phenyl)pent-1-en-1-yl)phenol 2hydrochloride salt]",,49.0,64.7,59.5,32.1,,,,,,"Functional Assay at 10 μM (% of control), Cpds [6]: 2.71 % of control; Functional Assay, Cpds/Ref 5182 [6]: 0.86"
CC(C)N1CCC(c2ccc(/C(=C(/CCCO)c3ccccc3)c3cccc(O)c3)cc2)C1 (racemic) [Compound 22u],,40.0,10.0,44.3,17.2,,,,,,
"OCCC/C(=C(\c1ccc(Br)cc1)c1ccc(N2CCNCC2)cc1)c1ccccc1 [Compound 20a, (E)-5-(4-bromophenyl)-4-phenyl-5-(4-(piperazin-1-yl)phenyl)pent-4-en-1-ol]",,65.1,,84.7,,85 % of control,76 % of control,,,55 % of control,"Functional Assay at 10 μM (% of control), Cpds ([6]; 10 μM, 24 hours, AD293): 3.15 % of control"
CC(=O)Nc1ccc(/C(=C(\CCCOC(C)=O)c2ccccc2)c2ccc(C3CCN(C4CC4)CC3)cc2)cc1 [Compound 27d],0.34 10^−6 cm/s,63.7,43.8,67.6,17.6,,,,,,
Cc1ccc(/C(=C(\CCCO)c2ccccc2)c2ccc(C3CCNCC3)cc2)cc1 [Compound 20k],,93.6,84.9,89.0,81.3,79.3 % of control,87.6 % of control,78.9 % of control,96.2 % of control,83.6 % of control,
